What was measured:
[1] = system: fli1:EGFP zebrafish embryos (intersegmental vessel growth); test: fli1:EGFP zebrafish embryo angiogenesis assay; format: in vivo; set-up: fli1:EGFP angiogenesis n (survived/tested): concentration or dose not given beside the values; conditions: for minimal effective concentration: Danio rerio, lowest concentration producing an effect, compounds not producing an effect shown at the highest evaluated concentration; for fli1:EGFP angiogenesis n (survived/tested): embryos alive after 24 hours of exposure
Source text: (§1) Zebrafish embryology: The use of zebrafish embryo (Danio rerio) bioassays as a preclinical model in the classification of novel compounds has increased in recent years due to several factors including; low cost, ease of maintenance, speed of embryonic development, transparency of the embryos and genetic conservation between zebrafish and humans (Howe et al., Nature 2013; 496:498; Therapontos et al., PNAS 2009, 106:8573; Mahony et al., PNAS 2013, 110:12703; Beedie et al., Oncotarget 2016, 7(22):33237; Beedie et al., Mol. Cancer Ther. 2015, 14(10):2228). Two established zebrafish reporter lines were used—the fli1:EGFP line, where the fli1 promoter drives expression of enhanced green fluorescent protein within the developing vasculature (Lawson et al., 2002), and the Tg(mpo::EGFP) line (also known as mpo:GFP), which expresses green fluorescent protein via the neutrophil specific myeloperoxidase promoter (Renshaw et al., Blood 2006, 108:3976). The use of these zebrafish transgenic reporter lines allows for the identification of potential anti-angiogenic and anti-inflammatory compounds respectively, and both have been used previously to successfully classify the action of thalidomide analogs (Therapontos et al., 2009; Mahony et al., 2013; Beedie et al., Oncotarget 2016, 7(22):33237; Beedie et al., Mol. Cancer Ther. 2015, 14(10):2228). Zebrafish embryos were treated with analogs as previously described (Mahony et al., 2013). Briefly, fli1:EGFP embryos were collected and embryos were allowed to develop for 24 hours. Embryos were dechorionated manually and exposed to test compounds or vehicle control for a further 24 hours, imaged and analyzed for intersegmental vessel (ISV) growth. At 24 hours post fertilisation (hpf) the ISVs were ideal to study to visualize and analyze the actions of compounds on angiogenesis. At this time point ISVs were rapidly forming beneath the developing head, over the body and had yet to form in the tail (Lawson and Weinstein, Developmental Biology 2002, 248:307; Therapontos and Vargesson, Developmental Dynamics 2010, 239:2761). Additionally, these sprouts would go on to form the bilateral dorsal longitudinal anastomotic vessels. By treating before this fusion and formation occurs, the effect of each compound on the individual vessels as well as overall patterning structural integrity (Isogai et al., Development 2003, 130:5281) could be determined. Tg(mpo::EGFP) were tail fin clipped as previously detailed (Renshaw et al., 2006; Mahony et al., 2013; Beedie et al., Oncotarget 2016, 7(22):33237; Beedie et al., Mol. Cancer Ther. 2015, 14(10):2228) and incubated with test compounds or vehicle control at 72 hours post fertilization. Fish were imaged at 24 hours and the number of migratory neutrophils present at the wound site were counted. Compounds inducing an at least 50% reduction of neutrophils to the wound site were considered to have anti-inflammatory properties in this system. All larvae were assessed for viability and morphological integrity.
To determine if the thalidomide analogs had any effect on angiogenesis, fli1:EGFP embryos (Lawson and Weinstein, Developmental Biology 2002, 248:307-318) were exposed to either vehicle or a compound of interest, over a range of concentrations and over a range of time points starting at 24 hpf. Images were obtained at three time points over 24 hours after exposure to the compounds. The best concentration and time point were selected. CPS49, a compound that is chemically and structurally similar to thalidomide breakdown products, and is tetrafluorinated (which adds stability and bioactivity to the compound) and that causes severe limb defects in chicken embryos, was used as a positive control. The embryos were imaged at 48 hpf (FIGS. 3A3L) and analyzed for both vessel formation and the extent of growth of the vasculature. […]

[2] = system: mpo:GFP zebrafish embryos (neutrophil migration to the wound site); test: mpo:GFP zebrafish fin-clip neutrophil migration (inflammation) assay; format: in vivo; set-up: mpo:GFP inflammation n (survived/tested): concentration or dose not given beside the values; conditions: for minimal effective concentration: Danio rerio, Neutrophil, lowest concentration producing an effect, compounds not producing an effect shown at the highest evaluated concentration; for mpo:GFP inflammation n (survived/tested): embryos survived/tested at the concentration given
Source text: as §1
To assess the immunomodulatory effects of the thalidomide analogs, the mpo:gfp transgenic zebrafish line (Renshaw et al., Blood 2006, 108:3976-3978) was utilized because it is an accepted model of inflammation, and can be used to test the effect of anti-inflammatory agents. These embryos express GFP-tagged myeloperoxidase, where green fluorescence marks the neutrophil cells involved in the inflammatory response process, for example following injury, from 72 hours post fertilization (Renshaw et al., 2006; Mahony et al., 2013; Beedie et al., Oncotarget 2016, 7(22):33237). At 72 hpf the dorsal third of the tail fin was removed and the embryos were immersed in the desired compound or vehicle (FIGS. 5A-5C). The embryos were examined for the effect on the inflammatory response quantified as an induction and migration of neutrophils to the wound site 24 hours later.

TNF-α protein = TNF-α protein level (ELISA) in LPS-challenged RAW 264.7 cells; format: cell-based, mouse; set-up: key: NS=not significant; a “+” sign=anti-inflammatory or increased cell numbers; a “−” sign=cell toxicity or pro-inflammatory; conditions: LPS 30 or 60 ng/mL, 24 h
Protocol: Nitrite levels in the culture media were measured by use of the Griess Reagent System (Promega, Madison, Wis.), following the manufacturer's protocol. The O.D. of unknown samples was read at 520 nm λ, compared to a sodium nitrite standard curve (1.5 μM to 100 μM) and nitrite measured media concentrations expressed as μM units. As the lowest nitrite concentration on the Griess Reagent System standard curve was 1.5 μM, this was chosen as the effective cutoff for defining measurable nitrite concentrations. TNF-α protein levels were measured by use of an ELISA specific for mouse TNF-α protein (BioLegend, San Diego, Calif.) and are expressed as a % change from their appropriate control or as pg/ml.
(§2) RAW 264.7 cells obtained from ATCC (Manassas, Va., USA) were grown in DMEM media supplemented with 10% FCS, penicillin 100 μg/ml and streptomycin 100 μg/ml, and maintained at 37° C. and 5% CO2. Cells were seeded in 24 well plates and, 24 hours later, were utilized in studies. One hour prior to the initiation of any study, the seeding media was replaced with fresh media (1 mL), and the cells were allowed to equilibrate at 37° C. and 5% CO2.
(§3) RAW 264.7 cells were challenged with LPS (Sigma, St Louis, Mo.: serotype 055:B5) from at a final concentration of 30 or 60 ng/mL. This concentration of LPS in RAW 264.7 cells induces a sub-maximal rise in both TNF-alpha and nitrite levels without a loss in cellular viability. This sub-maximal rise is useful for assessing whether the addition of an experimental drug can either lower or further raise levels of TNF-α and nitrite. Twenty four hours following the addition of LPS, conditioned media was harvested and analyzed for quantification of secreted TNF-α protein and nitrite levels. Fresh media was replaced into the wells and cell viability was then assessed.
(§4) Thalidomide and analogs were prepared in tissue culture grade DMSO (Sigma). RAW 264.7 cells were pretreated with thalidomide, analogues or vehicle one hour prior to a challenge with LPS. The effects of various concentrations of thalidomide analogues were assessed. All compounds were synthesized to a chemical purity of >99.5%, as assessed by chemical characterization by a combination of 1H NMR, 13C NMR and GC/MS analyses (Bruker AC-300 spectrometer, together with elemental analyses (Atlantic Microlab, Inc., Norcross, Ga.).

RAW 264.7 cells = test: Cell viability (CellTiter 96 AQueous One) of LPS-challenged RAW 264.7 cells; format: cell-based, mouse; set-up: key: NS=not significant; a “+” sign=anti-inflammatory or increased cell numbers; a “−” sign=cell toxicity or pro-inflammatory
Protocol: The CellTiter 96® AQueous One Solution Cell Proliferation Assay (Promega, Madison, Wis.) is routinely used as an assay of cell proliferation, and was used according to the manufacturer's recommendations. Changes in cellular health status are determined by use of indirect measures related to the formation of a colored tetrazolium dye product that can be measured spectrophotometrically at 490 nm λ. […] Optical densities (expressed as O.D.s) were measured after various incubations.
as §2, §3, §4

SMILES	minimal effective concentration [1] [µg/mL]	fli1:EGFP angiogenesis n (survived/tested) [1]	minimal effective concentration [2] [µg/mL]	mpo:GFP inflammation n (survived/tested) [2]	also measured
O=C1NC(=S)CCC1N1C(=O)c2ccccc2C1=S (stereo not drawn) [Compound 2, 2,3-dihydro-2-(2-oxo-6-thioxo-3-piperidinyl)-3-thioxo-1H-isoindol-1-one]	10	21/24	10	26/30	anti-inflammatory activity (inhibition of neutrophil migration) ([2]; in words): significant anti-inflammatory action
O=C1NC(=S)CCC1N1C(=O)c2cccc(O)c2C1=O (stereo not drawn) [Compound 14]	10	7/23	10	14/24	
O=C1NC(=S)CCC1N1C(=O)c2ccc(O)cc2C1=O (stereo not drawn) [Compound 17]	15	26/50	10	5/5	
CC(=O)Oc1ccc2c(c1)C(=O)N(C1CCC(=O)NC1=O)C2=O (stereo not drawn) [Compound 18]	50	24/43	50	14/14	
CC(=O)Oc1ccc2c(c1)C(=O)N(C1CCC(=S)NC1=O)C2=O (stereo not drawn) [Compound 19]	1	13/51	1	5/12	
O=C1CCC(N2C(=O)c3ccc(OCc4ccccc4)cc3C2=O)C(=O)N1 (stereo not drawn) [Compound 20]	10	51/79	10	8/14	
Nc1ccc2c(=O)n(C3CCC(=O)NC3=O)c(=O)oc2c1 (stereo not drawn) [Compound 24]	50	13/25	50	6/6	
Nc1cccc2c1CN(C1CCC(=S)NC1=O)C2=O (stereo not drawn) [Compound 30]	10	4/8	10	10/10	
Nc1cccc2c1CN(C1CCC(=S)NC1=O)C2=S (stereo not drawn) [Compound 32]	100	21/25	10	6/15	TNF-α (TNF-α protein; 3 μM): +; TNF-α (TNF-α protein; 10 μM): +; TNF-α (TNF-α protein; 30 μM): +; Viability (RAW 264.7 cells; 3 μM): NS; Viability (RAW 264.7 cells; 10 μM): NS; Viability (RAW 264.7 cells; 30 μM): NS
O=C1CCC(N2Cc3ccc([N+](=O)[O-])cc3C2=O)C(=O)N1 (stereo not drawn) [Compound 33]	100	15/21	10	4/15	
Nc1ccc2c(c1)C(=O)N(C1CCC(=O)NC1=O)C2 (stereo not drawn) [Compound 34]	100	13/20	100	7/9	
CC(C)Nc1ccc2c(c1)C(=O)N(C1CC=CNC1=O)C2 (stereo not drawn) [Compound 46, 6-Isopropylamino-2-(3,4-dihydro-2-pyridone-3-yl)phthalimidine]	10	14/30	10	24/50	
O=C1CCC(N2Cc3ccccc3C2=O)C(=O)N1CN1C(=S)c2ccccc2C1=S (stereo not drawn) [Compound 51]	200	7/25	1	4/11	concentration at which anti-angiogenic activity was shown ([1]; exposure from 24 hpf, imaged at 48 hpf): 200 µg/mL; TNF-α (TNF-α protein; 1 μM): +; TNF-α (TNF-α protein; 10 μM): +; TNF-α (TNF-α protein; 30 μM): +; Viability (RAW 264.7 cells; 1 μM): NS; Viability (RAW 264.7 cells; 10 μM): NS; Viability (RAW 264.7 cells; 30 μM): −
N=C1N/C(=N\C2CCC(=O)NC2=O)c2ccccc21 (stereo not drawn) [Compound 55]	100	6/10	200	6/11	
N=C1c2ccccc2C(=O)N1C1CCC(=O)NC1=O (stereo not drawn) [Compound 56]	10	9/19	10	7/8	
O=C1c2cccc([N+](=O)[O-])c2C(=O)N1c1nc2ccc(C(F)(F)F)cc2s1 [Compound 60]	10	3/10	1	5/15	
